# From patent publication US7166580B2, “Compounds which inhibit leukocyte adhesion mediated by VLA-4” (Elan Pharmaceuticals, Inc., priority 1997, dated 2007)
# Square brackets hold non-standard residues; d marks the D form. Peptide text beside a SMILES is read from it. * marks the point of attachment. Dip = N[C@H](C(=O)O)C(c1ccccc1)c1ccccc1; Tos = Cc1ccc(S(=O)(=O)*)cc1; OBn = c1ccc(CO*)cc1; Sar = CNCC(=O)O
row,Compound,melting point [°C]
1,"Cc1ccc(S(=O)(=O)NC(C(=O)N[C@@H](Cc2ccccc2)C(=O)O)c2ccccc2)cc1 (mixture of isomers) [Example 9, N-(Toluene-4-sulfonyl)-D,L-phenylglycyl-L-phenylalanine]",150 to 152
2,"Cc1ccc(S(=O)(=O)NCC(=O)N[C@@H](Cc2ccccc2)C(=O)O)cc1 [Example 3, N-(Toluene-4-sulfonyl)glycyl-L-phenylalanine] (Tos-Gly-Phe-OH)",157 to 161
3,"Cc1ccc(S(=O)(=O)N(C)CC(=O)N[C@@H](Cc2ccccc2)C(=O)O)cc1 [Example 4, N-(Toluene-4-sulfonyl)sarcosyl-L-phenylalanine] (Tos-[Sar]-Phe-OH)",128 to 130
4,"Cc1ccc(S(=O)(=O)N[C@@H](C)C(=O)N[C@@H](Cc2ccccc2)C(=O)O)cc1 [Example 5, N-(Toluene-4-sulfonyl)-L-alanyl-L-phenylalanine]",105 to 108
5,"COC(=O)c1ccccc1S(=O)(=O)NCC(=O)N[C@@H](Cc1ccccc1)C(=O)O [Example 6, N-(2-Methoxycarbonylbenzenesulfonyl)-glycyl-L-phenylalanine]",140 to 143

# The remaining lines, values ahead:
row,melting point [°C],Compound
1,145 to 147,"CCOC(=O)[C@H](Cc1ccccc1)NC(=O)C(NS(=O)(=O)c1ccc(C)cc1)c1ccccc1 (mixture of isomers) [Example 22, N-(Toluene-4-sulfonyl)-D,L-phenylglycyl-L-phenylalanine Ethyl Ester]"
2,148 to 150,"Cc1ccc(S(=O)(=O)NC(C(=O)N[C@@H](Cc2ccccc2)C(=O)OCc2ccccc2)c2ccccc2)cc1 (mixture of isomers) [Example 29, N-(Toluene-4-sulfonyl)-D,L-phenylglycyl-L-phenylalanine Benzyl Ester]"
3,46 to 49,"Cc1ccc(S(=O)(=O)N(C)C(C(=O)N[C@@H](Cc2ccccc2)C(=O)OCc2ccccc2)c2ccccc2)cc1 (mixture of isomers) [Example 30, N-(Toluene-4-sulfonyl)-N-methyl-D,L-phenylglycyl-L-phenylalanine Benzyl Ester]"
4,109 to 110,"Cc1ccc(S(=O)(=O)N[C@@H](C)C(=O)N[C@@H](Cc2ccccc2)C(=O)OCc2ccccc2)cc1 [Example 20, N-(Toluene-4-sulfonyl)-L-alanyl-L-phenylalanine Benzyl Ester]"
5,80 to 82,"Cc1ccc(S(=O)(=O)N(C)CC(=O)N[C@@H](Cc2ccccc2)C(=O)OCc2ccccc2)cc1 [Example 21, N-(Toluene-4-sulfonyl)sarcosyl-L-phenylalanine Benzyl Ester] (Tos-[Sar]-Phe-OBn)"
6,79 to 84,"Cc1ccc(S(=O)(=O)N[C@H](C(=O)N[C@@H](Cc2ccccc2)C(=O)OCc2ccccc2)C(c2ccccc2)c2ccccc2)cc1 [Example 25, N-(Toluene-4-sulfonyl)-L-diphenylalanyl-L-phenylalanine Benzyl Ester] (Tos-[Dip]-Phe-OBn)"
